Source: ChEMBL document CHEMBL3351299, “Structural insights on carbonic anhydrase inhibitory action, isoform selectivity, and potency of sulfonamides and coumarins incorporating arylsulfonylureido groups” (J Med Chem, 2014)

Key:
Carbonic anhydrase 9 = Carbonic anhydrase 9 (Homo sapiens, UniProt Q16790)
Carbonic anhydrase 1 = Carbonic anhydrase 1 (Homo sapiens, UniProt P00915); assay: Inhibition of human recombinant carbonic anhydrase 1 preincubated for 15 mins by stopped flow CO2 hydration method
Carbonic anhydrase 1, sequence (P00915 whole entry): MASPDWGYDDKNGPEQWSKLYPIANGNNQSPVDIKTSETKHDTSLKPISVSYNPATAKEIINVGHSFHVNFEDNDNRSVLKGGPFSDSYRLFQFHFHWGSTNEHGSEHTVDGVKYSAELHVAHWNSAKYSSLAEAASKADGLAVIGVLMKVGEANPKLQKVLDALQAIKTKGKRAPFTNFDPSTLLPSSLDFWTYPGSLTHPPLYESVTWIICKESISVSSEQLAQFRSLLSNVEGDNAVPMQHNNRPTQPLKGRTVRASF

Carbonic anhydrase 12 = Carbonic anhydrase 12 (Homo sapiens, UniProt O43570); assay: Inhibition of human recombinant carbonic anhydrase 12 preincubated for 15 mins by stopped flow CO2 hydration method
Carbonic anhydrase 12, sequence (O43570 whole entry): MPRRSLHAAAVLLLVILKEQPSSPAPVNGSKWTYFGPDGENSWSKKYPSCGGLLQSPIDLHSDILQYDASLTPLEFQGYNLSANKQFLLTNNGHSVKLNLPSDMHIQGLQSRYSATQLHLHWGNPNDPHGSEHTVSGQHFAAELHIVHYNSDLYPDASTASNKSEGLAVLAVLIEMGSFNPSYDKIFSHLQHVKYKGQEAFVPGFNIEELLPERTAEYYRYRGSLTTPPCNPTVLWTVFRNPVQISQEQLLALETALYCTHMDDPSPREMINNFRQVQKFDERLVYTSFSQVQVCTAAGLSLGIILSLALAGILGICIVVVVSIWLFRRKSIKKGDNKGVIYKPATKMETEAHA

Ki (Carbonic anhydrase 9)	Ki (Carbonic anhydrase 1)	Ki (Carbonic anhydrase 12)	SMILES
9.7 nM	57.8 nM	5.6 nM	NS(=O)(=O)c1ccc(CCNC(=O)NS(=O)(=O)c2ccc(Cl)cc2)cc1
9.6 nM	21.6 nM	5.9 nM	NS(=O)(=O)c1ccc(CCNC(=O)NS(=O)(=O)c2ccccc2)cc1
68.4 nM	82.6 nM	6.8 nM	NS(=O)(=O)c1ccc(CCNC(=O)NS(=O)(=O)c2ccc(F)cc2)cc1
9.2 nM	67.1 nM	6 nM	Cc1ccc(S(=O)(=O)NC(=O)NCCc2ccc(S(N)(=O)=O)cc2)cc1
23.1 nM	> 10000 nM	7.7 nM	Cc1cc(=O)oc2cc(NC(=O)NS(=O)(=O)c3ccc(F)cc3)ccc12
78.9 nM	52.8 nM	5.1 nM	NS(=O)(=O)c1ccc(CCNC(=O)NS(=O)(=O)c2ccccc2Cl)cc1
	> 10000 nM	9.4 nM	Cc1ccc(S(=O)(=O)NC(=O)Nc2ccc3c(C)cc(=O)oc3c2)cc1
90.7 nM	> 10000 nM	68.5 nM	Cc1cc(=O)oc2cc(NC(=O)NS(=O)(=O)c3ccccc3)ccc12
	64.2 nM	6.4 nM	Cc1ccccc1S(=O)(=O)NC(=O)NCCc1ccc(S(N)(=O)=O)cc1
87.8 nM	2380 nM	7.6 nM	Cc1cc(=O)oc2cc(NC(=O)NS(=O)(=O)c3ccccc3Cl)ccc12
	5730 nM		Cc1cc(=O)oc2cc(NC(=O)NS(=O)(=O)c3ccc(Cl)cc3)ccc12

SMILES	Ki (Carbonic anhydrase 9)	Ki (Carbonic anhydrase 1)	Ki (Carbonic anhydrase 12)
Cc1ccccc1S(=O)(=O)NC(=O)Nc1ccc2c(C)cc(=O)oc2c1		4970 nM	8.9 nM
